Patent publication US9056104B2, “Dynamic inhibitors of heat shock protein 90” (THE UNIVERSITY OF KANSAS, priority 2011, dated 2015)
Read-outs that look alike come from different tables or passages of the source.

Tests used:
[1] = test system: MCF-7 (estrogen receptor positive breast cancer cells); assay: Anti-proliferative activity against MCF-7 cells; type: cell-based; conditions: mean ± SD
Protocol: (§1) Once synthesized, the library of coumermycin A1 analogs containing the olefinic and saturated linkers, were evaluated for anti-proliferative activity against SKBr3 (estrogen receptor negative, Her2 over-expressing breast cancer cells), MCF-7 (estrogen receptor positive breast cancer cells), A549 (human lung adenocarcinoma epithelial), HT29 (Human colon adenocarcinoma grade II), and PC3mm2 (androgen receptor insensitive prostate cancer) cell lines. […] As shown, X is at the 6 position and Y is at the 8 position.

[2] = test system: PC3mm2 (androgen receptor insensitive prostate cancer); assay: Anti-proliferative activity against PC3mm2 cells; type: cell-based
Protocol: as §1, with “lines. The activities produced provide insight into the optimal distance between binding sites and provide rationale for subsequent analog design.” for “lines.”

[3] = test system: HSP90-dependent client proteins (Her-2, Raf, Akt); assay: Western blot analyses of HSP90 client protein degradation in MCF-7 breast cancer cells; type: cell-based; conditions: MCF-7 lysates, 24 hour treatment, 5x and 1/2 of antiproliferative IC50; actin control
Protocol: Since actin is not dependent on HSP90 for its maturation, actin levels should remain constant after treatment with an HSP90 inhibitor and is therefore used as a control. […] L represents a concentration ½ of the anti-proliferative IC50 value while H represents a concentration 5 times greater than the anti-proliferative IC50 value. GDA (500 nM) represents a positive control, while DMSO (0), vehicle, serves as the negative control. […]

[4] = test system: A549 (human lung adenocarcinoma epithelial); assay: Anti-proliferative activity against A549 cells; type: cell-based
Protocol: as §1, with “lines. The activities produced provide insight into the optimal distance between binding sites and provide rationale for subsequent analog design.” for “lines.”

[5] = test system: SKBr3 (estrogen receptor negative, Her2 over-expressing breast cancer cells); assay: Anti-proliferative activity against SKBr3 cells; type: cell-based; conditions: for IC50: mean ± SD
Protocol: as §1

[6] = test system: HT29 (Human colon adenocarcinoma grade II); assay: Anti-proliferative activity against HT29 cells; type: cell-based
Protocol: as §1, with “lines. The activities produced provide insight into the optimal distance between binding sites and provide rationale for subsequent analog design.” for “lines.”

cancer cells = conditions: cited from earlier work
[7] = test system: SKBr3, MCF-7, A549, HT29 and PC3mm2 cell lines; assay: Anti-proliferative activity, cell lines not specified; type: cell-based; conditions: 8-methyl coumarin series, versus Compound 32
Protocol: as §1, with “lines. The activities produced provide insight into the optimal distance between binding sites and provide rationale for subsequent analog design.” for “lines.”

[8] = Table 2, read-out: Anti-Proliferation Activities of non-Noviosylated Olefin Dimers, MCF7
[9] = Table 2, read-out: Anti-Proliferation Activities of non-Noviosylated Olefin Dimers, PC3mm2
[10] = Table 2, read-out: Anti-Proliferation Activities of non-Noviosylated Olefin Dimers, A549
[11] = Table 2, read-out: Anti-Proliferation Activities of non-Noviosylated Olefin Dimers, SKBr3
[12] = Table 2, read-out: Anti-Proliferation Activities of non-Noviosylated Olefin Dimers, HT29
[13] = Table 4, read-out: Anti-Proliferation Activities of Biaryl Dimers, MCF-7
[14] = Table 4, read-out: Anti-Proliferation Activities of Biaryl Dimers, SKBr3

Row | IC50 [1, 8] | IC50 [2, 9] | IC50 [4, 10] | IC50 [5, 11] | SMILES | other results
1 | 840 nM | 15200 nM | 19400 nM | 460 ± 20 nM | Cc1c(OCCCN(C)C)ccc2cc(NC(=O)C/C=C/CC(=O)Nc3cc4ccc(OCCCN(C)C)c(C)c4oc3=O)c(=O)oc12 [Compound 36] | degradation of HSP90 client proteins (Her-2, Raf, Akt), Western blot [3]: no activity against HSP90 client proteins; IC50 [6, 12]: 12200 nM
2 |  |  |  |  | Cc1c(OC2CCN(C)CC2)ccc2cc(NC(=O)CCCCC(=O)Nc3cc4ccc(OC5CCN(C)CC5)c(C)c4oc3=O)c(=O)oc12 [Compound 42] | IC50 ([1]; Table 3, read-out: Anti-Proliferation Activities of Saturated Linker Dimers, MCF-7): 2460 ± 400 nM; IC50 ([5]; Table 3, read-out: Anti-Proliferation Activities of Saturated Linker Dimers, SKBr3): 1260 ± 200 nM
3 |  |  |  |  | COC1C(O)C(O)C(Oc2ccc3cc(NC(=O)c4cccc(-c5cccc(C(=O)Nc6cc7ccc(OC8OC(C)(C)C(OC)C(O)C8O)c(C)c7oc6=O)c5)c4)c(=O)oc3c2C)OC1(C)C (stereo not drawn) [Compound 65] | IC50 [1, 13]: 1260 ± 170 nM; IC50 [5, 14]: 860 ± 140 nM
4 |  |  |  |  | CO[C@H]1[C@H](OC(=O)c2ccc(C)[nH]2)[C@H](O)[C@@H](Oc2ccc3c(O)c(NC(=O)c4c[nH]c(C(=O)Nc5c(O)c6ccc(O[C@H]7OC(C)(C)[C@@H](OC)[C@H](OC(=O)c8ccc(C)[nH]8)[C@@H]7O)c(C)c6oc5=O)c4C)c(=O)oc3c2C)OC1(C)C [coumermycin A1] | IC50 (cancer cells; previously found, background, read-out: IC50 against cancer cells (anti-proliferative activity)): 70000 nM; fold increase in anti-proliferative activity over novobiocin (cancer cells; relative to novobiocin): 10 fold
5 | 310 ± 50 nM | 380 nM | 37700 nM | 220 ± 50 nM | COc1cc2cc(NC(=O)CCC/C=C/CCCC(=O)Nc3cc4cc(OC)c(OC5CCN(C)CC5)c(C)c4oc3=O)c(=O)oc2c(C)c1OC1CCN(C)CC1 [Compound 33] | 
6 |  |  |  |  | COc1cc2cc(NC(=O)CC=CCC(=O)Nc3cc4cc(OC)c(OC5OC(C)(C)C(OC)C(O)C5O)c(C)c4oc3=O)c(=O)oc2c(C)c1OC1OC(C)(C)C(OC)C(O)C1O (stereo not drawn) [Compound 16] | IC50 ([1]; Table 1, at least two experiments in triplicate, read-out: Anti-Proliferation Activities of Noviosylated Olefin Dimers, MCF-7): > 100000 nM; IC50 ([5]; Table 1, at least two experiments in triplicate, read-out: Anti-Proliferation Activities of Noviosylated Olefin Dimers, SKBr3): > 100000 nM
7 | 730 ± 100 nM |  |  | 510 ± 60 nM | Cc1c(OC2CCN(C)CC2)ccc2cc(NC(=O)CCCC/C=C/CCCCC(=O)Nc3cc4ccc(OC5CCN(C)CC5)c(C)c4oc3=O)c(=O)oc12 [Compound 35] | 
8 |  |  |  |  | COc1cc(C(=O)Nc2cc3ccc(OC4OC(C)(C)C(OC)C(O)C4O)c(C)c3oc2=O)cc(-c2cc(OC)cc(C(=O)Nc3cc4ccc(OC5OC(C)(C)C(OC)C(O)C5O)c(C)c4oc3=O)c2)c1 (stereo not drawn) [Compound 68] | IC50 [1, 13]: 1850 ± 520 nM; IC50 ([2]; Table 4, read-out: Anti-Proliferation Activities of Biaryl Dimers, PC3mm2): 12500 nM; IC50 ([4]; Table 4, read-out: Anti-Proliferation Activities of Biaryl Dimers, A549): 28900 nM; IC50 [5, 14]: 1950 ± 400 nM; IC50 ([6]; Table 4, read-out: Anti-Proliferation Activities of Biaryl Dimers, HT29): 11700 nM
9 |  |  |  |  | COc1ccc(C(=O)Nc2cc3cc(OC)c(OC4OC(C)(C)C(OC)C(O)C4O)c(C)c3oc2=O)cc1-c1cc(C(=O)Nc2cc3cc(OC)c(OC4OC(C)(C)C(OC)C(O)C4O)c(C)c3oc2=O)ccc1OC (stereo not drawn) [Compound 69] | IC50 [1, 13]: 720 ± 210 nM; IC50 [5, 14]: 110 ± 50 nM; fold more active on SkBr3 cell lines than corresponding 8-Me and 8-OMe coumarin analogs (Compounds 66 and 68) ([5]; versus Compounds 66 and 68): 7-8 fold
10 | 1460 ± 200 nM | 8630 nM |  | 710 ± 40 nM | COc1c(OC2CCN(C)CC2)ccc2cc(NC(=O)C/C=C/CC(=O)Nc3cc4ccc(OC5CCN(C)CC5)c(OC)c4oc3=O)c(=O)oc12 [Compound 28] | 
11 | 49900 ± 2600 nM | 32900 nM | 77600 nM | > 100000 nM | Cc1c(OC2CCN(C)CC2)ccc2cc(NC(=O)CC/C=C\CCC(=O)Nc3cc4ccc(OC5CCN(C)CC5)c(C)c4oc3=O)c(=O)oc12 [Compound 38] | 
12 | 560 ± 50 nM | 170 nM | 550 nM | 270 ± 10 nM | COc1cc2cc(NC(=O)C/C=C/CC(=O)Nc3cc4cc(OC)c(OC5CCN(C)CC5)c(C)c4oc3=O)c(=O)oc2c(C)c1OC1CCN(C)CC1 [Compound 27] | 
13 | 270 ± 20 nM | 4190 nM | 5540 nM | 150 ± 10 nM | Cc1c(OC2CCN(C)CC2)ccc2cc(NC(=O)CC/C=C/CCC(=O)Nc3cc4ccc(OC5CCN(C)CC5)c(C)c4oc3=O)c(=O)oc12 [Compound 29] | fold more active than the 10-carbon linker (Compound 32) [7]: 2-3 fold; IC50 [6, 12]: 50 nM
